Test results as given in patent US12077503B2, “Substituted cyclic amides and their use as herbicides” (FMC CORPORATION, priority 2015, dated 2024).

Legend:
Assay type in all cases: in vivo
[1] = tested on: Kochia (Kochia scoparia); assay: Test A preemergence
In short: (§1)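 Visual injury, scored on a 0–100 scale relative to untreated controls, was recorded about 10 d after application. Treatments were a preemergence soil spray over planted seeds or a postemergence spray on plants at the one- to two-leaf stage, 2 to 10 cm tall, all in loam soil–sand blend in the greenhouse.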

[2] = tested on: barnyardgrass (Echinochloa crus-galli); assay: Test A preemergence
In short: as §1

[3] = tested on: giant foxtail (Setaria faberii); assay: Test A preemergence
In short: as §1

[4] = tested on: pigweed (Amaranthus retroflexus); assay: Test A preemergence; settings: for Plant response rating, Pigweed: preemergence
[5] = tested on: ragweed (common ragweed, Ambrosia elatior); assay: Test A preemergence; settings: for Plant response rating, Ragweed: preemergence
In short: as §1

[6] = tested on: ryegrass, Italian (Italian ryegrass, Lolium multiflorum); assay: Test A preemergence; settings: for Plant response rating, Ryegrass, Italian: preemergence
In short: as §1

[7] = tested on: Galium (catchweed bedstraw, Galium aparine); assay: Test A postemergence; settings: postemergence
In short: as §1

[8] = tested on: Kochia (Kochia scoparia); assay: Test A postemergence; settings: postemergence
In short: as §1

[9] = tested on: barnyardgrass (Echinochloa crus-galli); assay: Test A postemergence; settings: postemergence
In short: as §1

[10] = tested on: blackgrass (Alopecurus myosuroides); assay: Test A postemergence; settings: postemergence
In short: as §1

[11] = tested on: corn (Zea mays); assay: Test A postemergence; settings: postemergence
In short: as §1

[12] = tested on: giant foxtail (Setaria faberii); assay: Test A postemergence; settings: postemergence
In short: as §1

[13] = tested on: pigweed (Amaranthus retroflexus); assay: Test A postemergence; settings: postemergence
In short: as §1

[14] = tested on: ragweed (common ragweed, Ambrosia elatior); assay: Test A postemergence; settings: postemergence
In short: as §1

[15] = tested on: ryegrass, Italian (Italian ryegrass, Lolium multiflorum); assay: Test A postemergence; settings: postemergence
In short: as §1

[16] = tested on: wheat (Triticum aestivum); assay: Test A postemergence; settings: postemergence
In short: as §1

[17] = tested on: barnyardgrass (Echinochloa crus-galli); assay: Test B flooded paddy test; settings: Flood, 0 to 100 scale where 0 is no effect and 100 is complete control, 13 to 15 d
In short: (§2)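 Rating scale 0–100 (visual, vs untreated controls) after a 13–15 d greenhouse period; application to the flood layer, 3 cm above soil and maintained; plants at 2-leaf stage when treated.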

[18] = tested on: ducksalad (Heteranthera limosa); assay: Test B flooded paddy test; settings: Flood, 0 to 100 scale where 0 is no effect and 100 is complete control, 13 to 15 d
In short: as §2

[19] = tested on: rice (Oryra sativa); assay: Test B flooded paddy test; settings: Flood, 0 to 100 scale where 0 is no effect and 100 is complete control, 13 to 15 d
In short: as §2

[20] = tested on: sedge, umbrella (small-flower umbrella sedge, Cyperus difformis); assay: Test B flooded paddy test; settings: Flood; for Plant response rating, Sedge, Umbrella: 0 to 100 scale where 0 is no effect and 100 is complete control, 13 to 15 d
In short: as §2

[21] = 125 g ai/ha, Preemergence, visual injury after approximately 10 d, 0 to 100 scale where 0 is no effect and 100 is complete control
[22] = 500 g ai/ha, preemergence, 0 to 100 scale, 0 = no effect, 100 = complete control
[23] = 125 g ai/ha, visual rating after approx. 10 d, 0 to 100 scale where 0 is no effect and 100 is complete control
[24] = 500 g ai/ha, 0 to 100 scale, 0 = no effect, 100 = complete control
[25] = 125 g ai/ha, visual injury after approximately 10 d, 0 to 100 scale (0 no effect, 100 complete control)
[26] = 500 g ai/ha, visual injury, 0 to 100 scale (0 no effect, 100 complete control), approx. 10 d
[27] = 125 g ai/ha, visual rating after approx. 10 d, 0 to 100 scale (0 no effect, 100 complete control)
[28] = 125 g ai/ha, preemergence, 0 to 100 scale (0 no effect, 100 complete control)
[29] = Preemergence, 500 g ai/ha, visual injury approx. 10 d
[30] = 125 g ai/ha, 0 to 100 scale (0 no effect, 100 complete control)
[31] = 125 g ai/ha, visual injury rating on 0 to 100 scale (0 no effect, 100 complete control), approx. 10 d
[32] = 500 g ai/ha, 0 to 100 scale, 0 no effect, 100 complete control
[33] = 125 g ai/ha, preemergence, visual rating after approx. 10 d, 0 to 100 scale where 0 is no effect and 100 is complete control

## CCC1(C(=O)Nc2cccc(F)c2F)C(=O)N(C)CC1c1cccc(C(F)(F)F)c1 (stereo not drawn) [Compound 694]
[1]; [21]
  Plant response rating, Kochia: 0
[1]; [22]
  Plant response rating, Kochia: 0
[2]; [21]
  Plant response rating, Barnyardgrass: 70
[2]; [22]
  Plant response rating, Barnyardgrass: 90
[3]; [21]
  Plant response rating, Foxtail, Giant: 90
[3]; [22]
  Plant response rating, Foxtail, Giant: 90
[4]; [23]
  Plant response rating, Pigweed: 0
[4]; [24]
  Plant response rating, Pigweed: 0
[5]; [23]
  Plant response rating, Ragweed: 0
[5]; [24]
  Plant response rating, Ragweed: 0
[6]; [23]
  Plant response rating, Ryegrass, Italian: 0
[6]; [24]
  Plant response rating, Ryegrass, Italian: 10
[7]; [25]
  Plant response rating, Galium: 0
[7]; [26]
  Plant response rating, Galium: 0
[8]; [25]
  Plant response rating, Kochia: 0
[8]; [26]
  Plant response rating, Kochia: 0
[9]; [27]
  Plant response rating, Barnyardgrass: 50
[9]; [26]
  Plant response rating, Barnyardgrass: 70
[10]; [27]
  Plant response rating, Blackgrass: 10
[10]; [26]
  Plant response rating, Blackgrass: 30
[11]; [25]
  Plant response rating, Corn: 0
[11]; [26]
  Plant response rating, Corn: 0
[12]; [25]
  Plant response rating, Foxtail, Giant: 50
[12]; [26]
  Plant response rating, Foxtail, Giant: 80
[13]; [25]
  Plant response rating, Pigweed: 20
[13]; [26]
  Plant response rating, Pigweed: 50
[14]; [25]
  Plant response rating, Ragweed: 0
[14]; [26]
  Plant response rating, Ragweed: 0
[15]; [25]
  Plant response rating, Ryegrass, Italian: 0
[15]; [26]
  Plant response rating, Ryegrass, Italian: 50
[16]; [25]
  Plant response rating, Wheat: 0
[16]; [26]
  Plant response rating, Wheat: 0
[17]; 250 g ai/ha
  Plant response rating, Barnyardgrass: 0
[18]; 250 g ai/ha
  Plant response rating, Ducksalad: 20
[19]; 250 g ai/ha
  Plant response rating, Rice: 0
[20]; 250 g ai/ha, scale of 0 to 100 where 0 is no effect and 100 is complete control
  Sedge, Umbrella plant response rating: 0

## CN1CC(c2ccc3c(c2)OC(F)(F)O3)C(C(=O)Nc2ccccc2S(C)(=O)=O)C1=O (stereo not drawn) [Compound 443]
[1]; [28]
  Plant response rating, Kochia: 30
[1]; [29]
  Kochia plant response rating (0 to 100 scale, 0 is no effect, 100 is complete control): 80
[2]; [28]
  Plant response rating, Barnyardgrass: 90
[2]; [29]
  Barnyardgrass plant response rating (0 to 100 scale, 0 is no effect, 100 is complete control): 90
[3]; [28]
  Plant response rating, Foxtail, Giant: 90
[3]; [29]
  Foxtail, Giant plant response rating (0 to 100 scale, 0 is no effect, 100 is complete control): 90
[4]; [30]
  Plant response rating, Pigweed: 80
[4]; [29]
  Pigweed plant response rating (0 to 100 scale, 0 is no effect, 100 is complete control): 90
[5]; [30]
  Plant response rating, Ragweed: 80
[5]; [29]
  Ragweed plant response rating (0 to 100 scale, 0 is no effect, 100 is complete control): 80
[6]; [30]
  Plant response rating, Ryegrass, Italian: 40
[6]; [29]
  Ryegrass, Italian plant response rating (0 to 100 scale, 0 is no effect, 100 is complete control): 50
[7]; [31]
  Galium plant response rating: 40
[7]; [32]
  Plant response rating, Galium: 50
[8]; [31]
  Kochia plant response rating: 20
[8]; [32]
  Plant response rating, Kochia: 30
[9]; [31]
  Barnyardgrass plant response rating: 80
[9]; [32]
  Plant response rating, Barnyardgrass: 80
[10]; [31]
  Blackgrass plant response rating: 60
[10]; [32]
  Plant response rating, Blackgrass: 70
[11]; [31]
  Corn plant response rating: 40
[11]; [32]
  Plant response rating, Corn: 80
[12]; [31]
  Foxtail, Giant plant response rating: 80
[12]; [32]
  Plant response rating, Foxtail, Giant: 80
[13]; [31]
  Pigweed plant response rating: 20
[13]; [32]
  Plant response rating, Pigweed: 50
[14]; [31]
  Ragweed plant response rating: 20
[14]; [32]
  Plant response rating, Ragweed: 20
[15]; [31]
  Ryegrass, Italian plant response rating: 30
[15]; [32]
  Plant response rating, Ryegrass, Italian: 60
[16]; [31]
  Wheat plant response rating: 40
[16]; [32]
  Plant response rating, Wheat: 60
[17]; 250 g ai/ha
  Plant response rating, Barnyardgrass: 70
[18]; 250 g ai/ha
  Plant response rating, Ducksalad: 80
[19]; 250 g ai/ha
  Plant response rating, Rice: 0
[20]; 250 g ai/ha
  Plant response rating, Sedge, Umbrella: 0

## O=C1NCC(c2cccc3ccccc23)C1C(=O)Nc1cccc(F)c1F (racemic) [Compound 711]
[1]; [33]
  Plant response rating, Kochia: 0
[1]; [22]
  Plant response rating, Kochia: 0
[2]; [33]
  Plant response rating, Barnyardgrass: 0
[2]; [22]
  Plant response rating, Barnyardgrass: 0
[3]; [33]
  Plant response rating, Foxtail, Giant: 0
[3]; [22]
  Plant response rating, Foxtail, Giant: 0
[4]; [23]
  Plant response rating, Pigweed: 0
[4]; [24]
  Plant response rating, Pigweed: 0
[5]; [23]
  Plant response rating, Ragweed: 0
[5]; [24]
  Plant response rating, Ragweed: 0
[6]; [23]
  Plant response rating, Ryegrass, Italian: 0
[6]; [24]
  Plant response rating, Ryegrass, Italian: 0
[7]; [25]
  Plant response rating, Galium: 0
[7]; [26]
  Plant response rating, Galium: 0
[8]; [25]
  Plant response rating, Kochia: 0
[8]; [26]
  Plant response rating, Kochia: 0
[9]; [25]
  Plant response rating, Barnyardgrass: 0
[9]; [26]
  Plant response rating, Barnyardgrass: 0
[10]; [25]
  Plant response rating, Blackgrass: 0
[10]; [26]
  Plant response rating, Blackgrass: 0
[11]; [25]
  Plant response rating, Corn: 0
[11]; [26]
  Plant response rating, Corn: 0
[12]; [25]
  Plant response rating, Foxtail, Giant: 0
[12]; [26]
  Plant response rating, Foxtail, Giant: 0
[13]; [25]
  Plant response rating, Pigweed: 0
[13]; [26]
  Plant response rating, Pigweed: 0
[14]; [25]
  Plant response rating, Ragweed: 0
[14]; [26]
  Plant response rating, Ragweed: 0
[15]; [25]
  Plant response rating, Ryegrass, Italian: 0
[15]; [26]
  Plant response rating, Ryegrass, Italian: 0
[16]; [25]
  Plant response rating, Wheat: 0
[16]; [26]
  Plant response rating, Wheat: 0
[17]; 500 g ai/ha
  Plant response rating, Barnyardgrass: 0
[18]; 500 g ai/ha
  Plant response rating, Ducksalad: 60
[19]; 500 g ai/ha
  Plant response rating, Rice: 0
[20]; 500 g ai/ha
  Plant response rating, Sedge, Umbrella: 0
